Like-named read-outs stand apart in the source and are kept apart here.
Tests used:
Type in all cases: cell-based
[1] = tested on: TT medullary thyroid carcinoma, harboring a mutated RET-C634W receptor; assay: In vitro cell proliferation assay, TT; details: Homo sapiens
Description: (§1) In Vitro Cell Proliferation Assay
(§2) To evaluate the antiproliferative activity of a compound of formula (I) the following human cell lines were used: A2780 ovarian carcinoma; TT medullary thyroid carcinoma, harboring a mutated RET-C634W receptor; LC-2/ad human lung adenocarcinoma, harboring the CCDC6-RET fusion protein. Exponentially growing cells were seeded and incubated at 37° C. in a humidified 5% CO2 atmosphere using appropriate medium supplemented with 10% Fetal Bovine Serum. 24 hours following cell plating, scalar doses of the compounds dissolved in 0.1% DMSO were added to the medium and cells were exposed to drugs for either 72 hours (A2780) or 144 hours (TT and LC-2/ad), according to their different proliferation rate. At the end of treatment, cell proliferation was determined by an intracellular ATP monitoring system (CellTiterGlo—Promega), following manufacturer's instructions, and using an Envision instrument (PerkinElmer) as reader. Data obtained from compound versus vehicle treated cells were compared using Assay Explorer (Symyx Technologies Inc) software. IC50 values were calculated using sigmoidal interpolation curve fitting. In the following Table A the antiproliferative activity of representative compounds of formula (I) on one medullary thyroid carcinoma cell line expressing the aforementioned mutated forms of RET (TT) and on one lung adenocarcinoma cell line harboring the aforementioned fusion form of RET (LC-2/ad) is reported. As control, the antiproliferative activity of the same compounds on an unrelated non RET-dependent cell line (A2780) is reported. All these compounds show remarkable activity on RET-driven cellular models with respect to the unrelated ones.

[2] = tested on: A2780 ovarian carcinoma; assay: In vitro cell proliferation assay, A2780 (non RET-dependent control); details: Homo sapiens
Description: as §1, §2

[3] = tested on: LC-2/ad human lung adenocarcinoma, harboring the CCDC6-RET fusion protein; assay: In vitro cell proliferation assay, LC-2/ad
Description: as §1, §2

[4] = antiproliferative activity, 144 hours exposure, CellTiterGlo ATP readout, RET-C634W, read-out: TT IC50
[5] = A2780, antiproliferative activity, 72 hours exposure, CellTiterGlo ATP readout, unrelated non RET-dependent cell line, read-out: A2780 IC50
[6] = antiproliferative activity, 144 hours exposure, CellTiterGlo ATP readout, CCDC6-RET fusion, read-out: LC-2/ad IC50
[7] = A2780, 72 h, read-out: A2780 IC50 (μM)
[8] = 144 h, read-out: LC-2/ad IC50 (μM)

CC(C)n1cc(-c2ccc3c(C(=O)NC4CC4)cccc3c2)c2c(N)ncnc21 [cmpd 1, 6-(4-Amino-7-isopropyl-7H-pyrrolo[2,3-d]pyrimidin-5-yl)-naphthalene-1-carboxylic acid cyclopropylamide]
IC50 [1, 4]: 0.001 µM | IC50 [2, 5]: 0.867 µM | IC50 [3, 6]: 0.003 µM

Nc1ncnc2c1c(-c1ccc3c(C(=O)NC4CC4)cccc3c1)cn2C1CCCC1 [cmpd 3, 6-(4-Amino-7-cyclopentyl-7H-pyrrolo[2,3-d]pyrimidin-5-yl)-naphthalene-1-carboxylic acid cyclopropylamide]
IC50 [1, 4]: 0.003 µM | IC50 [2, 5]: 0.385 µM | IC50 [3, 6]: 0.006 µM

CC(C)n1cc(-c2ccc3c(C(N)=O)cccc3c2)c2c(N)ncnc21 [cmpd 4, 6-(4-Amino-7-isopropyl-7H-pyrrolo[2,3-d]pyrimidin-5-yl)-naphthalene-1-carboxylic acid amide]
IC50 [1, 4]: 0.017 µM | IC50 [2, 5]: 2.42 µM | IC50 [3, 6]: 0.021 µM

CC(C)NC(=O)c1cccc2cc(-c3cn(C(C)C)c4ncnc(N)c34)ccc12 [cmpd 5, 6-(4-Amino-7-isopropyl-7H-pyrrolo[2,3-d]pyrimidin-5-yl)-naphthalene-1-carboxylic acid isopropylamide]
IC50 ([1]; 144 h, read-out: TT IC50 (μM)): 0.086 µM | IC50 [2, 7]: 2.94 µM | IC50 [3, 8]: 0.082 µM

CNC(=O)c1cccc2cc(-c3cn(C(C)C)c4ncnc(N)c34)ccc12 [cmpd 6, 6-(4-Amino-7-isopropyl-7H-pyrrolo[2,3-d]pyrimidin-5-yl)-naphthalene-1-carboxylic acid methylamide]
IC50 [1, 4]: 0.024 µM | IC50 [2, 5]: 0.348 µM | IC50 [3, 6]: 0.049 µM

CC(C)n1cc(-c2ccc3c(C(=O)NCC(F)(F)F)cccc3c2)c2c(N)ncnc21 [cmpd 7, 6-(4-Amino-7-isopropyl-7H-pyrrolo[2,3-d]pyrimidin-5-yl)-naphthalene-1-carboxylic acid (2,2,2-trifluoro-ethyl)-amide]
IC50 [1, 4]: 0.048 µM | IC50 [2, 5]: 2.81 µM | IC50 [3, 6]: 0.046 µM

Nc1ncnc2c1c(-c1ccc3c(C(=O)NC4CC4)cccc3c1)cn2C1CCOCC1 [cmpd 8, 6-[4-Amino-7-(tetrahydro-pyran-4-yl)-7H-pyrrolo[2,3-d]pyrimidin-5-yl]-naphthalene-1-carboxylic acid cyclopropylamide]
IC50 [1, 4]: 0.009 µM | IC50 [2, 5]: 0.814 µM | IC50 [3, 6]: 0.011 µM

CC(C)n1cc(-c2ccc3c(C(=O)Nc4ccc(CN5CCN(C)CC5)c(C(F)(F)F)c4)cccc3c2)c2c(N)ncnc21 [cmpd 10, 6-(4-Amino-7-isopropyl-7H-pyrrolo[2,3-d]pyrimidin-5-yl)-naphthalene-1-carboxylic acid [4-(4-methyl-piperazin-1-ylmethyl)-3-trifluoromethyl-phenyl]-amide]
IC50 [1, 4]: 0.002 µM | IC50 [2, 5]: 0.072 µM | IC50 [3, 6]: 0.008 µM

CC(C)n1cc(-c2ccc3c(C(=O)NC4CCC4)cccc3c2)c2c(N)ncnc21 [cmpd 11, 6-(4-Amino-7-isopropyl-7H-pyrrolo[2,3-d]pyrimidin-5-yl)-naphthalene-1-carboxylic acid cyclobutylamide]
IC50 [1, 4]: 0.028 µM | IC50 [2, 5]: 0.961 µM | IC50 [3, 6]: 0.034 µM

Nc1ncnc2c1c(-c1ccc3c(C(=O)NC4CC4)cccc3c1)cn2C1CCC1 [cmpd 12, 6-(4-Amino-7-cyclobutyl-7H-pyrrolo[2,3-d]pyrimidin-5-yl)-naphthalene-1-carboxylic acid cyclopropylamide]
IC50 [1, 4]: 0.042 µM | IC50 [2, 5]: 1.84 µM | IC50 [3, 6]: 0.051 µM

Nc1ncnc2c1c(-c1ccc3c(C(=O)NC4CC4)cccc3c1)cn2CC1CC1 [cmpd 13, 6-(4-Amino-7-cyclopropylmethyl-7H-pyrrolo[2,3-d]pyrimidin-5-yl)-naphthalene-1-carboxylic acid cyclopropylamide]
IC50 [1, 4]: 0.007 µM | IC50 [2, 5]: 0.463 µM | IC50 [3, 6]: 0.006 µM

CC(C)n1cc(-c2ccc3c(c2)CCN3C(=O)NC2CC2)c2c(N)ncnc21 [cmpd 16, 5-(4-Amino-7-isopropyl-7H-pyrrolo[2,3-d]pyrimidin-5-yl)-2,3-dihydro-indole-1-carboxylic acid cyclopropylamide]
IC50 ([1]; 144 h, read-out: TT IC50 (μM)): 0.077 µM | IC50 [2, 7]: 2.19 µM | IC50 [3, 8]: 0.084 µM

Nc1ncnc2c1c(-c1ccc3c(C(=O)NC4CC4)cccc3c1)cn2C1CCC(F)(F)CC1 [cmpd 30, 6-[4-Amino-7-(4,4-difluoro-cyclohexyl)-7H-pyrrolo[2,3-d]pyrimidin-5-yl]-naphthalene-1-carboxylic acid cyclopropylamide]
IC50 [1, 4]: 0.03 µM | IC50 [2, 5]: 2.34 µM | IC50 [3, 6]: 0.04 µM

Reference: patent US10221181B2, “6-amino-7-bicyclo-7-deaza-purine derivatives as protein kinase inhibitors” (NERVIANO MEDICAL SCIENCES S.r.l., priority 2014, dated 2019)
